Assay results reported in ChEMBL document CHEMBL5096204 (J Med Chem, 2021).

Legend:
[1] = Lipophilicity, logD of the compound in octanol/buffer at pH 7.4 by shake flask method; format: physicochemical
[2] = Dissociation constant, pKa of the compound; format: physicochemical
[3] = Volume of distribution in Han-wistar rat at […], iv; format: ADME; settings: in vivo, dose 1.5 µmol/kg
[4] = Volume of distribution in SCID mouse at 5 umol/kg, iv; format: ADME; settings: in vivo, dose 5 µmol/kg
[5] = Apparent permeability of compound from apical to basolateral side in human Caco-2 cells; format: ADME, cell-based
[6] = Drug metabolism in SCID mouse plasma assessed as 1-Isopropyl-5-(2-(piperidin-4-yl)-1H-pyrrolo[2,3-b]pyridin-4-yl)-pyridin-2(1H)-one metabolite formation at 0.5 mg/kg, iv administered as cassette dose; format: ADME, organism-based; settings: in vivo

SMILES | logD [1] | pKa [2] | Vd [3] | further results
COc1cc(F)ccc1-c1ccnc2[nH]c(C3CCNCC3)cc12 | 1.2 | 10.2 | 10 L/kg | Vd [4]: 14 L/kg
COc1cc(F)ccc1-c1ccnc2[nH]c(C3CCN(C)CC3)cc12 | 2.6 | 9 | 5.2 L/kg | 
COc1cc(F)ccc1-c1ccnc2[nH]c(-c3ccc(CN4CCOCC4)cc3)cc12 | 4.4 |  |  | 
COc1cc(C(=O)N2CCCC2)ccc1-c1ccnc2[nH]c(C3CCNCC3)cc12 |  | 10.2 | 5.8 L/kg | Papp A→B [5]: < 0.01 ×10⁻⁶ cm/s
COc1cc(C(=O)N2CCCC2)ccc1-c1ccnc2[nH]c(-c3ccc(CN4CCOCC4)cc3)nc12 | 2.6 |  |  | 
COc1cc(F)ccc1-c1ccnc2[nH]c(C3CCN(C(C)=O)CC3)cc12 | 3.4 |  | 1.7 L/kg | 
CNC(=O)CN1CCC(c2cc3c(-c4ccc(=O)n(C(C)C)c4)ccnc3[nH]2)CC1 | 2.2 | 6.9 | 2.6 L/kg | 
COc1cc(F)ccc1-c1ccnc2[nH]c(C3CCN(CCO)CC3)cc12 | 2.4 | 8.5 | 12 L/kg | 
CC(=O)N1CCC(c2cc3c(-c4ccc(=O)n(C(C)C)c4)ccnc3[nH]2)CC1 | 2.1 |  |  | 
Cc1nc2ccc(-c3ccnc4[nH]c(C5CCN(CC(=O)N(C)C)CC5)cc34)cc2n1C(C)C | 3.1 |  |  | 
COc1cc(F)ccc1-c1ccnc2[nH]c(C3CCOCC3)cc12 | 3.9 |  |  | 
COc1cc(F)ccc1-c1ccnc2[nH]c(-c3ccc(CN4CCOCC4)cc3)nc12 | 3.7 |  |  | 
COc1cc(F)ccc1-c1ccnc2[nH]c(C3CCC(NC(C)=O)C3)nc12 (centres undefined) | 2.3 |  |  | 
CC(C)n1cc(-c2ccnc3[nH]c(C4CCNCC4)cc23)ccc1=O | -0.2 |  |  | 
CC(C)n1cc(-c2ccnc3[nH]c(C4CCN(Cc5cccs5)CC4)cc23)ccc1=O | 3.4 | 6.5 | 1.6 L/kg | 
COc1cc(F)ccc1-c1ccnc2[nH]c(C3CCNCC3)nc12 | 0 |  |  | 
COc1cc(C(=O)N2CCCC2)ccc1-c1ccnc2[nH]c(C3CCN(CCO)CC3)cc12 | 1.3 |  |  | 
COc1cc(F)ccc1-c1ccnc2[nH]c(C3CCN(CC(=O)N(C)C)CC3)cc12 | 2.9 | 8 | 2.3 L/kg | 
CC(C)n1cc(-c2ccnc3[nH]c(C4CCN(CC(=O)N5CCCCC5)CC4)cc23)ccc1=O |  | 7.8 | 8.1 L/kg | Vd [4]: 1.5 L/kg; Drug metabolism [6]: Metabolite_Notdetected
COc1cc(C(=O)N2CCCC2)ccc1-c1ccnc2[nH]c(C3CCOCC3)cc12 | 3 |  | 0.8 L/kg | 
CC(C)n1cc(-c2ccnc3[nH]c(C4CCN(CC(F)F)CC4)cc23)ccc1=O | 2.9 | 6 | 1.8 L/kg | 
O=C(c1ccc(-c2ccnc3[nH]c(-c4ccc(CN5CCOCC5)cc4)nc23)cc1)N1CCCC1 | 3.2 |  |  | 
COc1cc(C(=O)N2CCCC2)ccc1-c1ccnc2[nH]c(C3CCN(C(C)=O)CC3)cc12 | 2.5 |  | 0.9 L/kg | 
CC(C)n1cc(-c2ccnc3[nH]c(C4CCN(CC(=O)N5CCCC5)CC4)cc23)ccc1=O |  | 7.8 | 3.9 L/kg | Vd [4]: 1.2 L/kg; Drug metabolism [6]: Metabolite_Notdetected
COc1cc(F)ccc1-c1ccnc2[nH]c([C@H]3CC[C@H](NC(C)=O)CC3)cc12 | 3.8 |  | 2.5 L/kg | 

Now from value to molecule, other results behind:

logD [1] | pKa [2] | Vd [3] | SMILES | further results
1.9 |  |  | CN(C)C(=O)CN1CCC(c2cc3c(-c4ccc(=O)n(C5CCC5)c4)ccnc3[nH]2)CC1 | 
1.1 |  |  | COCCn1cc(-c2ccnc3[nH]c(C4CCN(CC(=O)N(C)C)CC4)cc23)ccc1=O | 
0.7 |  |  | COc1cc(=O)n(C)cc1-c1ccnc2[nH]c(C3CCN(CC(=O)N(C)C)CC3)cc12 | 
1.2 |  |  | CCn1cc(-c2ccnc3[nH]c(C4CCN(CC(=O)N(C)C)CC4)cc23)ccc1=O | 
0.4 |  | 2.9 L/kg | CC(C)n1cc(-c2ccnc3[nH]c(C4CCN(CC(=O)N(C)C)CC4)cc23)cnc1=O | 
1.1 |  |  | CN(C)C(=O)CN1CCC(c2cc3c(-c4ccc(=O)n(C5CCOCC5)c4)ccnc3[nH]2)CC1 | 
 | 7.9 | 5.9 L/kg | CC(C)n1cc(-c2ccnc3[nH]c(C4CCN(CC(=O)N(C)C)CC4)cc23)ccc1=O | 
1.7 |  |  | CSCCn1cc(-c2ccnc3[nH]c(C4CCN(CC(=O)N(C)C)CC4)cc23)ccc1=O | 
1.5 |  |  | CN(C)C(=O)CN1CCC(c2cc3c(-c4ccc(=O)n(CCC5CCOCC5)c4)ccnc3[nH]2)CC1 | 
2 |  |  | CC(C)Cn1cc(-c2ccnc3[nH]c(C4CCN(CC(=O)N(C)C)CC4)cc23)ccc1=O | 
2 | 7.6 | 2.9 L/kg | CC(C)n1nc(-c2ccnc3[nH]c(C4CCN(CC(=O)N(C)C)CC4)cc23)ccc1=O | 
1.4 |  |  | CN(C)C(=O)CN1CCC(c2cc3c(-c4ccc(=O)n(CC5CCOCC5)c4)ccnc3[nH]2)CC1 | 
1.1 |  |  | CN(C)C(=O)CN1CCC(c2cc3c(-c4ccc(=O)n(C)c4)ccnc3[nH]2)CC1 | 
